What is called IC50 is the concentration at which inhibition is half-maximal.

SMILES strings stand for the structures.

Our source for the IC50 values is patent US20240124422A1, “MUTANT PI3K-ALPHA INHIBITORS AND THEIR USE AS PHARMACEUTICALS” (Prelude Therapeutics Incorporated, priority 2022, published 2024).

In experiment [1] the test system is phosphorylation of AKT on Ser473 as a readout of the PI3K pathway in T-47D (heterozygous PIK3CA H1047R) cells. Kind of experiment: PI3K pathway activation assay, pAKT Ser473 HTRF, T-47D cells. The experiment is classed as cell-based. As to conditions: Homo sapiens, T47D, 2 h, two hours of treatment. The method in brief: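 pAKT Ser473 measured by HTRF in SKBR3 (PIK3CA WT) and T-47D (PIK3CA H1047R) cells, 4,000/well. Signal normalised to background and DMSO controls as percent inhibition.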

Experiment [2] relates to phosphorylation of AKT on Ser473 as a readout of the PI3K pathway in SKBR3 (PIK3CA WT) cells. Put plainly: PI3K pathway activation assay, pAKT Ser473 HTRF, SKBR3 cells. In kind it is cell-based. As to conditions: Homo sapiens, SK-BR-3, 2 h, two hours of treatment. As to the method:
The inhibitory activity of compounds was evaluated by measuring phosphorylation of AKT on Ser473 as a readout of the PI3K pathway using HTRF (CisBio catalog number: 64AKSPE). These studies were conducted in the T-47D (heterozygous PIK3CA H1047R) and SKBR3 (PIK3CA WT) cell lines. Cells were maintained in a 37° C. incubator at 5% CO2 in the following media: T-47D: RPMI 1640, ATCC© Modification (Gibco, A10491-01) supplemented with 10% v/v FBS (Gibco, 26140-079), 1% penicillin streptomycin (Gibco, 15140-122), and 7.4 ug/mL insulin (MilliporeSigma, I9278); SKBR3: McCoy's 5a (Modified) Medium (Gibco, 16600-082) supplemented with 10% v/v FBS (Gibco, 26140-079). Cells were seeded in 384-well plates at a density of 4,000 cells/well. Compounds dissolved in DMSO were added using a digital dispense (D300E, Tecan) 10-point serial dilution. After two hours of treatment, cells were lysed for thirty minutes and then incubated with detection reagents per HTRF kit material and manufacturer's instructions. Fluorescence signal was measured with a multimode plate reader (Envision 2105, Perkin Elmer). Fluorescent signal was normalized to background and DMSO controls to obtain percent inhibition/activity for each compound.
On the technique in general: In TR-FRET formats the signal depends on donor and acceptor labels being close together.

Consider `COCCn1c(N2Cc3ccccc3C2)nc2c(C(C)Nc3ccccc3C(=O)O)cc(C)cc2c1=O` (stereo not shown) [Example 19, 2-((1-(2-(isoindolin-2-yl)-3-(2-methoxyethyl)-6-methyl-4-oxo-3,4-dihydroquinazolin-8-yl)ethyl)amino)benzoic acid], for which the IC50 in experiment [1] is 0.5 to 10 µM; in experiment [2] it was more than 10 µM.

Consider `Cc1cc(C(C)Nc2ccc(F)c(F)c2C(=O)O)c2nc(N3Cc4ccccc4C3)n(CCCF)c(=O)c2c1` (stereo not shown) [Example 20, 2,3-difluoro-6-((1-(3-(3-fluoropropyl)-2-(isoindolin-2-yl)-6-methyl-4-oxo-3,4-dihydroquinazolin-8-yl)ethyl)amino)benzoic acid], for which the IC50 was less than 0.5 µM in experiment [1] and more than 10 µM in experiment [2].

With `Cc1cc(C(C)Nc2ccccc2C(=O)O)c2nc(N3Cc4ccccc4C3)n(C(C)C)c(=O)c2c1` (stereo not shown) [Example 21, 2-((1-(2-(isoindolin-2-yl)-3-isopropyl-6-methyl-4-oxo-3,4-dihydroquinazolin-8-yl)ethyl)amino)benzoic acid], the IC50 is less than 0.5 µM in experiment [1] and more than 10 µM in experiment [2].

On to `Cc1cc(C(C)Nc2ccccc2C(=O)O)c2nc(N3Cc4ccccc4C3)[nH]c(=O)c2c1` (stereo not shown) [Example 22, 2-((1-(2-(isoindolin-2-yl)-6-methyl-4-oxo-3,4-dihydroquinazolin-8-yl)ethyl)amino)benzoic acid], for which the half-maximal inhibitory concentration (IC50) in experiment [1] was less than 0.5 µM; in experiment [2], more than 10 µM.

Regarding `Cc1cc(C(C)Nc2cc(C#N)ccc2C(=O)O)c2nc(N3CC4CC4C3)n(C)c(=O)c2c1` (stereo not shown) [Example 23, 2-((1-(2-(3-azabicyclo[3.1.0]hexan-3-yl)-3,6-dimethyl-4-oxo-3,4-dihydro-quinazolin-8-yl)ethyl)amino)-4-cyanobenzoic acid], the IC50 is 0.5 to 10 µM in experiment [1] and more than 10 µM in experiment [2].

`Cc1cc(C(C)Nc2cccnc2C(=O)O)c2nc(N3Cc4ccccc4C3)n(C)c(=O)c2c1` (stereo not shown) [Example 28, 3-((1-(2-(isoindolin-2-yl)-3,6-dimethyl-4-oxo-3,4-dihydroquinazolin-8-yl)ethyl)amino)picolinic acid]: the results for the IC50 in experiment [1] and in experiment [2] were 0.5 to 10 µM and more than 10 µM, respectively.

As for `Cc1cc(C(C)Nc2ccc(C#N)cc2C(=O)O)c2nc(N3Cc4ccccc4C3)n(C)c(=O)c2c1` (stereo not shown) [Example 31, 5-cyano-2-((1-(2-(isoindolin-2-yl)-3,6-dimethyl-4-oxo-3,4-dihydroquinazolin-8-yl)ethyl)amino)benzoic acid], the figures for the IC50 in experiment [1] and in experiment [2] were less than 0.5 µM and more than 10 µM, respectively.

For the compound `Cc1cc(C(C)Nc2cn(C)nc2C(=O)O)c2nc(N3Cc4ccccc4C3)n(C)c(=O)c2c1` (stereo not shown) [Example 34, 4-((1-(2-(isoindolin-2-yl)-3,6-dimethyl-4-oxo-3,4-dihydroquinazolin-8-yl)ethyl)amino)-1-methyl-1H-pyrazole-3-carboxylic acid], the IC50 in experiment [1] is 0.5 to 10 µM; in experiment [2], more than 10 µM.

`Cc1cc(C(C)Nc2ccc(F)c(F)c2C(=O)O)c2nc(N3Cc4ccccc4C3)n(C)c(=O)c2c1` (stereo not shown) [Example 35, 2,3-difluoro-6-((1-(2-(isoindolin-2-yl)-3,6-dimethyl-4-oxo-3,4-dihydroquinazolin-8-yl)ethyl)amino)benzoic acid]: the 50% inhibitory concentration (IC50) in experiment [1] is less than 0.5 µM; in experiment [2], more than 10 µM.

For `Cc1cc(C(C)Nc2ccccc2C(=O)O)c2nc(N3CCC4(CC4)C3)n(C)c(=O)c2c1` (stereo not shown) [Example 39, 2-[1-[2-(5-azaspiro[2.4]heptan-5-yl)-3,6-dimethyl-4-oxoquinazolin-8-yl]ethyl-amino]benzoic acid], the figures for the IC50 in experiment [1] and in experiment [2] were less than 0.5 µM and more than 10 µM, respectively.

In the case of `COc1nc2c(C(C)Nc3ccccc3C(=O)O)cc(C)cc2c(=O)n1C` (stereo not shown) [Example 41, 2-[1-(2-methoxy-3,6-dimethyl-4-oxoquinazolin-8-yl)ethylamino]benzoic acid], the figures for the 50% inhibitory concentration (IC50) in experiment [1] and in experiment [2] were 0.5 to 10 µM and more than 10 µM, respectively.

Regarding `CSc1nc2c(C(C)Nc3ccccc3C(=O)O)cc(C)cc2c(=O)n1C` (stereo not shown) [Example 43, 2-[1-(3,6-dimethyl-2-methylsulfanyl-4-oxoquinazolin-8-yl)ethylamino]benzoic acid], the values for the IC50 in experiment [1] and in experiment [2] were 0.5 to 10 µM and more than 10 µM, respectively.

As to `CC(=O)N1CCN(c2nc3c(C(C)Nc4ccccc4C(=O)O)cc(C)cc3c(=O)n2C)CC1` (stereo not shown) [Example 46, 2-((1-(2-(4-acetylpiperazin-1-yl)-3,6-dimethyl-4-oxo-3,4-dihydroquinazolin-8-yl)ethyl)amino)benzoic acid], the results for the IC50 in experiment [1] and in experiment [2] were 0.5 to 10 µM and more than 10 µM, respectively.

Regarding `Cc1cc(C(C)Nc2ccccc2C(=O)O)c2nc(N3Cc4ccccc4C3)n([C@H]3C[C@H](O)C3)c(=O)c2c1` (stereo partly shown) [Example 48, 2-((1-(3-((1r,3r)-3-Hydroxycyclobutyl)-2-(isoindolin-2-yl)-6-methyl-4-oxo-3,4-dihydroquinazolin-8-yl)ethyl)amino)benzoic acid], the IC50 in experiment [1] was less than 0.5 µM; in experiment [2] it was more than 10 µM.

`CC(Nc1ccccc1C(=O)O)c1cc(F)cc2c(=O)n(C)c(N3CC4CC4C3)nc12` (stereo not shown) [Example 49, 2-((1-(2-(3-azabicyclo[3.1.0]hexan-3-yl)-6-fluoro-3-methyl-4-oxo-3,4-dihydro-quinazolin-8-yl)ethyl)amino)benzoic acid]: the IC50 is less than 0.5 µM in experiment [1] and more than 10 µM in experiment [2].

On to `Cc1cc(C(C)Nc2ccccc2C(=O)O)c2nc(N(C)C)n(C)c(=O)c2c1` (stereo not shown) [Example 54, 2-[1-[2-(dimethylamino)-3,6-dimethyl-4-oxoquinazolin-8-yl]ethylamino]benzoic acid], for which the results for the concentration for half-maximal inhibition (IC50) in experiment [1] and in experiment [2] were 0.5 to 10 µM and more than 10 µM, respectively.

On to `Cc1cc(C(C)Nc2ccccc2C(=O)O)c2nc(N3CCCCCC3)n(C)c(=O)c2c1` (stereo not shown) [Example 55, 2-((1-(2-(azepan-1-yl)-3,6-dimethyl-4-oxo-3,4-dihydroquinazolin-8-yl)ethyl)amino)benzoic acid], for which the figures for the IC50 in experiment [1] and in experiment [2] were less than 0.5 µM and more than 10 µM, respectively.

Turning to `COC(=O)NC1[C@H]2CN(c3nc4c(C(C)Nc5ccccc5C(=O)O)cc(C)cc4c(=O)n3C)C[C@@H]12` (stereo partly drawn) [Example 58, 2-((1-(2-((1R,5S,6s)-6-((methoxycarbonyl)amino)-3-azabicyclo[3.1.0]hexan-3-yl)-3,6-dimethyl-4-oxo-3,4-dihydroquinazolin-8-yl)ethyl)amino)benzoic acid], the values for the IC50 in experiment [1] and in experiment [2] were less than 0.5 µM and more than 10 µM, respectively.

On to `Cc1ccc(C(=O)O)c(NC(C)c2cc(C)cc3c(=O)n(C)c(N4Cc5ccccc5C4)nc23)c1` (stereo not shown) [Example 69, 2-((1-(2-(Isoindolin-2-yl)-3,6-dimethyl-4-oxo-3,4-dihydroquinazolin-8-yl)ethyl)amino)-4-methylbenzoic], for which the half-inhibitory concentration (IC50) was 0.5 to 10 µM in experiment [1] and more than 10 µM in experiment [2].

`CC(Nc1ccccc1C(=O)O)c1cc(Br)cc2c(=O)n(C)c(N3Cc4ccccc4C3)nc12` (stereo not shown) [Example 70, 2-((1-(6-Bromo-2-(isoindolin-2-yl)-3-methyl-4-oxo-3,4-dihydroquinazolin-8-yl)ethyl)amino)benzoic acid]: the half-maximal inhibitory concentration (IC50) is less than 0.5 µM in experiment [1] and more than 10 µM in experiment [2].
